In patent US20260250290A1 (BRISTOL-MYERS SQUIBB COMPANY, priority 2023, published 2026):
Structures can show the parent of a compound that is named as a salt.

What follows are compounds tested against T1, full length SGK1 (Homo sapiens, UniProt O00141) (assay: SGK1 inhibition Assay A (Caliper LabChip electrophoretic separation of fluorescent peptide substrate and phosphorylated product)). Settings: Assay A; 20 μM ATP, 40 min incubation; read-out: SGK1 IC50.
T1 construct: 125 μM full length SGK1 (Life Technologies Part #PR7358A); purchased Life Technologies PR7358A
T1 sequence (O00141 1-431): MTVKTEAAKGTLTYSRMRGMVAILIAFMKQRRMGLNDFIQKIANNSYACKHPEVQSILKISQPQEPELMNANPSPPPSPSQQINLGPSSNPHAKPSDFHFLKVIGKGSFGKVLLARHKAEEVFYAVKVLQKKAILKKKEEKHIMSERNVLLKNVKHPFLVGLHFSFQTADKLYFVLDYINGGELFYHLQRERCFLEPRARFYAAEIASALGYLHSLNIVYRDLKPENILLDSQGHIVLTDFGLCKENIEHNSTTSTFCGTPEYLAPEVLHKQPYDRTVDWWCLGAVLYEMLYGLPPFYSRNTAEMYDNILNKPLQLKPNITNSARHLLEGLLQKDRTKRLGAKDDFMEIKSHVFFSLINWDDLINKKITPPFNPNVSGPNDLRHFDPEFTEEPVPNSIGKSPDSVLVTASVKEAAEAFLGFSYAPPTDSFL
Assay type: biochemical

Structure (SMILES) | IC50
CC(=O)N1CC=C(c2cc(N3CCC[C@@H](NC(=O)c4sc(Cl)cc4OC4CCNC(C)(C)C4)C3)c3c(N)ncnn23)C1 (mixture of isomers) [Example 627, N-((R)-1-(7-(1-acetyl-2,5-dihydro-1H-pyrrol-3-y1)-4-aminopyrrolo[2,1-f][1,2,4]triazin-5-yl)piperidin-3-y1)-5-chloro-3-((2,2-dimethylpiperidin-4-yl)oxy)thiophene-2-carboxamide] | 10 nM
COC(=O)N1CC=C(c2cc(N3CCC[C@@H](NC(=O)c4sc(Cl)cc4OC4CCNC(C)(C)C4)C3)c3c(N)ncnn23)C1 (mixture of isomers) [Example 628, methyl 3-(4-amino-5-((3R)-3-(5-chloro-3-((2,2-dimethylpiperidin-4-yl)oxy)thiophene-2-carboxamido)piperidin-1-yl)pyrrolo[2,1-f][1,2,4]triazin-7-y1)-2,5-dihydro-1H-pyrrole-1-carboxylate] | 1 nM
CS(=O)(=O)c1ccc(-c2cc(N3CC[C@@H](F)[C@@H](NC(=O)c4ccc(Cl)s4)C3)c3c(N)ncnn23)cc1 (relative stereo) [Example 143, rel-N-((3R,4S)-1-(4-amino-7-(4-(methylsulfonyl)phenyl)pyrrolo[2,1-f][1,2,4]triazin-5-yl)-4-fluoropiperidin-3-yl)-5-chlorothiophene-2-carboxamide, TFA] | 10 nM
CS(=O)(=O)c1ccc(-c2cc(N3CC[C@H](F)[C@@H](NC(=O)c4ccc(Cl)s4)C3)c3c(N)ncnn23)cc1 (relative stereo) [Example 144, rel-N-((3R,4R)-1-(4-amino-7-(4-(methylsulfonyl)phenyl)pyrrolo[2,1-f][1,2,4]triazin-5-yl)-4-fluoropiperidin-3-yl)-5-chlorothiophene-2-carboxamide, TFA] | 24 nM
CS(=O)(=O)c1ccc(-c2cc(N3CC[C@@H]4C[C@]4(NC(=O)c4ccc(Cl)s4)C3)c3c(N)ncnn23)cc1 (relative stereo) [Example 165, rel-N-((1R,6R)-3-(4-amino-7-(4-(methylsulfonyl)phenyl)pyrrolo[2,1-f][1,2,4]triazin-5-yl)-3-azabicyclo[4.1.0]heptan-1-yl)-5-chlorothiophene-2-carboxamide, TFA] | 284 nM
Nc1ncnn2c(C3=CCN(C(=O)[C@H]4C[C@@H]4F)C3)cc(N3CCC[C@@H](NC(=O)c4sc(Cl)cc4OCCN4CCOCC4)C3)c12 (relative stereo) [Example 262, rel-N-((R)-1-(4-amino-7-(1-((1R,2S)-2-fluorocyclopropane-1-carbonyl)-2,5-dihydro-1H-pyrrol-3-yl)pyrrolo[2,1-f][1,2,4]triazin-5-yl)piperidin-3-yl)-5-chloro-3-(2-morpholinoethoxy)thiophene-2-carboxamide] | 18 nM
CC(=O)N1CC=C(c2cc(N3CCC[C@@H](NC(=O)c4sc(Cl)cc4OCC4CCCN4)C3)c3c(N)ncnn23)C1 (single isomer, unassigned) [Example 391D] | 2 nM
CC(=O)N1CC=C(c2cc(N3CCC[C@@H](NC(=O)c4sc(Cl)cc4OCC4CCCN4)C3)c3c(N)ncnn23)C1 (single isomer, unassigned) [Example 391E] | 4 nM
CC(=O)N1CC=C(c2cc(N3CCC[C@@H](NC(=O)c4sc(Cl)cc4OCC4CCCN4C)C3)c3c(N)ncnn23)C1 (single isomer, unassigned) [Example 391] | 4 nM
CC(=O)N1CC=C(c2cc(N3CCC[C@@H](NC(=O)c4sc(C(F)F)cc4C4CCNC4)C3)c3c(N)ncnn23)C1 (single isomer, unassigned) [Example 398F] | 130 nM
CC(=O)N1CC=C(c2cc(N3CCC[C@@H](NC(=O)c4sc(Cl)cc4OC4CCCN(C)C4)C3)c3c(N)ncnn23)C1 (single isomer, unassigned) [Example 595] | 37 nM
CC(=O)N1CC=C(c2cc(N3CCC[C@@H](NC(=O)c4sc(Cl)cc4OC4CCNCC4F)C3)c3c(N)ncnn23)C1 (single isomer, unassigned) [Example 600D] | 19 nM
CC(=O)N1CC=C(c2cc(N3CCC[C@@H](NC(=O)c4sc(Cl)cc4OC4CCN(C)CC4F)C3)c3c(N)ncnn23)C1 (single isomer, unassigned) [Example 600] | 6 nM
CC(=O)N1CC=C(c2cc(N3CCC[C@@H](NC(=O)c4sc(Cl)cc4OC4CC5CC4CN5)C3)c3c(N)ncnn23)C1 (single isomer, unassigned) [Example 607] | 3 nM
CC(=O)N1CC=C(c2cc(N3CCCC(NC(=O)c4sc(Cl)cc4OC4CC5CC4CN5C)C3)c3c(N)ncnn23)C1 (single isomer, unassigned) [Example 608] | 8 nM
CC(=O)N1CC=C(c2cc(N3CCCC(NC(=O)c4sc(Cl)cc4OC4CC5CC4CN5C)C3)c3c(N)ncnn23)C1 (single isomer, unassigned) [Example 609] | 7 nM
CC(=O)N1CC=C(c2cc(N3CCCC(NC(=O)c4sc(Cl)cc4OC4CC5CC4CN5C(C)C)C3)c3c(N)ncnn23)C1 (single isomer, unassigned) [Example 610] | 11 nM
CC(=O)N1CC=C(c2cc(N3CCCC(NC(=O)c4sc(Cl)cc4OC4CC5CC4CN5C(C)C)C3)c3c(N)ncnn23)C1 (single isomer, unassigned) [Example 611] | 7 nM

Structure (SMILES) | IC50
CC(=O)N1CC=C(c2cc(N3CCCC(NC(=O)c4sc(Cl)cc4OC4CCNC(C)C4)C3)c3c(N)ncnn23)C1 (single isomer, unassigned) [Example 622] | 3 nM
CC(=O)N1CC=C(c2cc(N3CCCC(NC(=O)c4sc(Cl)cc4OC4CCNC(C)C4)C3)c3c(N)ncnn23)C1 (single isomer, unassigned) [Example 623] | 4 nM
CC1CC(Oc2cc(Cl)sc2C(=O)NC2CCCN(c3cc(-c4cncnc4)n4ncnc(N)c34)C2)CCN1 (single isomer, unassigned) [Example 625] | 6 nM
CC1CC(Oc2cc(Cl)sc2C(=O)NC2CCCN(c3cc(-c4cncnc4)n4ncnc(N)c34)C2)CCN1 (single isomer, unassigned) [Example 626] | 8 nM
COC(=O)N1CC=C(c2cc(N3CCCC(NC(=O)c4sc(Cl)cc4OC4CCNC(C)(C)C4)C3)c3c(N)ncnn23)C1 (single isomer, unassigned) [Example 629] | 5 nM
COC(=O)N1CC=C(c2cc(N3CCCC(NC(=O)c4sc(Cl)cc4OC4CCNC(C)(C)C4)C3)c3c(N)ncnn23)C1 (single isomer, unassigned) [Example 630] | 2 nM
CC(=O)N1CC=C(c2cc(N3CCCC(NC(=O)c4sc(Cl)cc4OCC4CCNC4)C3)c3c(N)ncnn23)C1 (single isomer, unassigned) [Example 638] | 8 nM
CC(=O)N1CC=C(c2cc(N3CCCC(NC(=O)c4sc(Cl)cc4OCC4CCNC4)C3)c3c(N)ncnn23)C1 (single isomer, unassigned) [Example 639] | 4 nM
CCOC(=O)[C@H]1CCCN(c2cc(-c3ccc(S(C)(=O)=O)cc3)n3ncnc(N)c23)C1 [Example 1, ethyl (S)-1-(4-amino-7-(4-(methylsulfonyl)phenyl)pyrrolo[2,1-f][1,2,4]triazin-5-yl)piperidine-3-carboxylate] | 2990 nM
CS(=O)(=O)c1ccc(-c2cc(N3CCCC(NC(=O)c4ccccn4)C3)c3c(N)ncnn23)cc1 (centres unmarked) [Example 2, N-(1-(4-amino-7-(4-(methylsulfonyl)phenyl)pyrrolo[2,1-f][1,2,4]triazin-5-yl)piperidin-3-yl)picolinamide, TFA] | 81 nM
CS(=O)(=O)c1ccc(-c2cc(N3CCCC(NC(=O)c4cccnn4)C3)c3c(N)ncnn23)cc1 (centres unmarked) [Example 3, N-(1-(4-amino-7-(4-(methylsulfonyl)phenyl)pyrrolo[2,1-f][1,2,4]triazin-5-yl)piperidin-3-yl)pyridazine-3-carboxamide, TFA] | 239 nM
CS(=O)(=O)c1ccc(-c2cc(N3CCCC(NC(=O)c4ccccc4)C3)c3c(N)ncnn23)cc1 (centres unmarked) [Example 4, N-(1-(4-amino-7-(4-(methylsulfonyl)phenyl)pyrrolo[2,1-f][1,2,4]triazin-5-yl)piperidin-3-yl)benzamide] | 33 nM
CS(=O)(=O)c1ccc(-c2cc(N3CCCC(NC(=O)c4ccc(Cl)cc4)C3)c3c(N)ncnn23)cc1 (centres unmarked) [Example 5, N-(1-(4-amino-7-(4-(methylsulfonyl)phenyl)pyrrolo[2,1-f][1,2,4]triazin-5-yl)piperidin-3-yl)-4-chlorobenzamide, TFA] | 73 nM
CS(=O)(=O)c1ccc(-c2cc(N3CCCC(NC(=O)c4ccc(Cl)c(Cl)c4)C3)c3c(N)ncnn23)cc1 (centres unmarked) [Example 6, N-(1-(4-amino-7-(4-(methylsulfonyl)phenyl)pyrrolo[2,1-f][1,2,4]triazin-5-yl)piperidin-3-yl)-3,4-dichlorobenzamide] | 157 nM
Cc1ccc(C(=O)NC2CCCN(c3cc(-c4ccc(S(C)(=O)=O)cc4)n4ncnc(N)c34)C2)cc1 (centres unmarked) [Example 7, N-(1-(4-amino-7-(4-(methylsulfonyl)phenyl)pyrrolo[2,1-f][1,2,4]triazin-5-yl)piperidin-3-yl)-4-methylbenzamide, TFA] | 90 nM
COc1ccc(C(=O)NC2CCCN(c3cc(-c4ccc(S(C)(=O)=O)cc4)n4ncnc(N)c34)C2)cc1 (centres unmarked) [Example 8, N-(1-(4-amino-7-(4-(methylsulfonyl)phenyl)pyrrolo[2,1-f][1,2,4]triazin-5-yl)piperidin-3-yl)-4-methoxybenzamide, TFA] | 67 nM
CS(=O)(=O)c1ccc(-c2cc(N3CCCC(NC(=O)Nc4ccccc4)C3)c3c(N)ncnn23)cc1 (centres unmarked) [Example 9, 1-(1-(4-amino-7-(4-(methylsulfonyl)phenyl)pyrrolo[2,1-f][1,2,4]triazin-5-yl)piperidin-3-yl)-3-phenylurea, TFA] | 263 nM
